{
  "source": "paper PMC5312290",
  "about": "“Momordin Ic, a new natural SENP1 inhibitor, inhibits prostate cancer cell proliferation” (Oncotarget, 2016)",
  "target": "SUMO-specific protease 1 (SENP1) (Homo sapiens, UniProt Q9P0U3)",
  "sequence (Q9P0U3 419-644 limits assumed)": "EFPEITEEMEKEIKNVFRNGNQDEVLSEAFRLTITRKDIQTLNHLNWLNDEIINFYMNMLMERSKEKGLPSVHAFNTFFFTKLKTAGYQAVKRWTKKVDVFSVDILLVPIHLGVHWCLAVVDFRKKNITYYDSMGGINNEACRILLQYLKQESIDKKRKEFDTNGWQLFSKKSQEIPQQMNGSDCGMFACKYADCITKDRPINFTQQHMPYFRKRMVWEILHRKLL",
  "data": [
    {"compound": "CC1(C)CC[C@]2(C(=O)O)CC[C@]3(C)C(=CC[C@@H]4[C@@]5(C)CC[C@H](O[C@@H]6O[C@H](C(=O)O)[C@@H](O)[C@H](O[C@@H]7OC[C@@H](O)[C@H](O)[C@H]7O)[C@H]6O)C(C)(C)[C@@H]5CC[C@]43C)[C@@H]2C1", "note": "[Mc, Momordin Ιc]", "values": [
      {"measurement": "IC50", "result": 15.4, "unit": "µM"}
    ]}
  ]
}
